Data set [1] is described as follows: refractive index (Na D-line) (dimensionless). As to conditions: 102.2 kPa, Liquid, Standard Abbe refractometry.
The conditions of data set [2]: 102.2 kPa, Liquid, Vibrating tube method.
Data set [3] in a line: refractive index (Na D-line) (dimensionless); xn = mol fraction of the nth substance listed. The conditions noted are these: 102.2 kPa, Liquid, Standard Abbe refractometry, x2 = 0.
A short description of data set [4]: xn = mol fraction of the nth substance listed. The conditions noted are these: 102.2 kPa, Liquid, Vibrating tube method, x2 = 0.

Where “and” joins values, the source holds several entries; their conditions need not be identical. Equal values may be shown once. ± gives the expanded uncertainty stated by the source.

In the case of `C[Si]1(CCC(F)(F)F)O[Si](C)(CCC(F)(F)F)O[Si](C)(CCC(F)(F)F)O1` (stereo not given), the refractive index in data set [1] (308.15 K) came out at 1.36015 ± 0.00035; in data set [1] (313.15 K), 1.35814 ± 0.00035; in data set [1] (318.15 K), 1.35614 ± 0.00035; in data set [1] (323.15 K), 1.35413 ± 0.00035; in data set [1] (328.15 K) it was 1.35215 ± 0.00035. In addition, the mass density was determined as 1236.82 ± 0.23 kg/m3 in data set [2] (308.15 K); 1230.2 ± 0.23 kg/m3 in data set [2] (313.15 K); 1223.61 ± 0.23 kg/m3 in data set [2] (318.15 K); 1217.06 ± 0.23 kg/m3 in data set [2] (323.15 K); 1210.43 ± 0.23 kg/m3 in data set [2] (328.15 K).
Take `C[Si]1(CCC(F)(F)F)O[Si](C)(CCC(F)(F)F)O[Si](C)(CCC(F)(F)F)O1` (stereo not given) + C[Si](C)(O[Si](C)(C)c1ccccc1)c1ccccc1: the refractive index in data set [3] (308.15 K) is 1.36015 ± 0.00035; in data set [3] (313.15 K), 1.35814 ± 0.00035; in data set [3] (318.15 K), 1.35614 ± 0.00035; in data set [3] (323.15 K), 1.35413 ± 0.00035; in data set [3] (328.15 K) it was 1.35215 ± 0.00035. Besides, the mass density in data set [4] (308.15 K) was 1236.82 ± 0.23 kg/m3; in data set [4] (313.15 K) it was 1230.2 ± 0.23 kg/m3; in data set [4] (318.15 K), 1223.61 ± 0.23 kg/m3; in data set [4] (323.15 K), 1217.06 ± 0.23 kg/m3; in data set [4] (328.15 K) it was 1210.43 ± 0.23 kg/m3.
`C=C[Si](C)(C)O[Si](C)(C)C=C` [1,3-diethenyl-1,1,3,3-tetramethyldisiloxane]: the refractive index worked out at 1.40445 ± 0.00036 in data set [1] (308.15 K); 1.40178 ± 0.00036 in data set [1] (313.15 K); 1.39912 ± 0.00036 in data set [1] (318.15 K); 1.39644 ± 0.00036 in data set [1] (323.15 K); 1.39378 ± 0.00036 in data set [1] (328.15 K). Moreover, the mass density in data set [2] (308.15 K) was found to be 797.99 ± 0.23 kg/m3; in data set [2] (313.15 K) it was 793.04 ± 0.23 kg/m3; in data set [2] (318.15 K) it was 788.05 ± 0.24 kg/m3; in data set [2] (323.15 K), 783.06 ± 0.24 kg/m3; in data set [2] (328.15 K) it was 778.04 ± 0.24 kg/m3.
Turning to `C=C[Si](C)(C)O[Si](C)(C)C=C` [1,3-diethenyl-1,1,3,3-tetramethyldisiloxane] + C[Si](C)(O[Si](C)(C)c1ccccc1)c1ccccc1, the refractive index is 1.40445 ± 0.00036 in data set [3] (308.15 K); 1.40178 ± 0.00036 in data set [3] (313.15 K); 1.39912 ± 0.00036 in data set [3] (318.15 K); 1.39644 ± 0.00036 in data set [3] (323.15 K); 1.39378 ± 0.00036 in data set [3] (328.15 K). For the same compound, the mass density in data set [4] (308.15 K) turned out to be 797.99 ± 0.23 kg/m3; in data set [4] (313.15 K), 793.04 ± 0.23 kg/m3; in data set [4] (318.15 K), 788.05 ± 0.24 kg/m3; in data set [4] (323.15 K), 783.06 ± 0.24 kg/m3; in data set [4] (328.15 K), 778.04 ± 0.24 kg/m3.
For `C[Si](C)(O[Si](C)(C)c1ccccc1)c1ccccc1` [1,3-diphenyltetramethyldisiloxane], the refractive index in data set [1] (308.15 K) is 1.51064 ± 0.00035 [middle of 4 runs]; in data set [1] (313.15 K) it was 1.50832 ± 0.00035 [middle of 4 runs]; in data set [1] (318.15 K), 1.50605 ± 0.00035 [middle of 4 runs]; in data set [1] (323.15 K) it was 1.50377 ± 0.00035 [middle of 4 runs]; in data set [1] (328.15 K), 1.50144 ± 0.00035 [middle of 4 runs]. In addition, the mass density was 968.05 ± 0.21 kg/m3 and 967.99 ± 0.21 kg/m3 and 967.9 ± 0.21 kg/m3 in data set [2] (308.15 K); 963.92 ± 0.21 kg/m3 [middle of 4 runs] in data set [2] (313.15 K); 959.8 ± 0.21 kg/m3 [middle of 4 runs] in data set [2] (318.15 K); 955.69 ± 0.21 kg/m3 [middle of 4 runs] in data set [2] (323.15 K); 951.57 ± 0.21 kg/m3 and 951.58 ± 0.21 kg/m3 and 951.65 ± 0.21 kg/m3 in data set [2] (328.15 K).
As to `C=C[Si]1(C)O[Si](C)(C=C)O[Si](C)(C=C)O[Si](C)(C=C)O1` (stereo not given) [2,4,6,8-tetramethyl-2,4,6,8-tetravinylcycloterasiloxane], the refractive index came to 1.42751 ± 0.00035 in data set [1] (308.15 K); 1.42514 ± 0.00035 in data set [1] (313.15 K); 1.42275 ± 0.00035 in data set [1] (318.15 K); 1.4204 ± 0.0004 in data set [1] (323.15 K); 1.41802 ± 0.00035 in data set [1] (328.15 K). Also, the mass density in data set [2] (308.15 K) worked out at 972.64 ± 0.21 kg/m3; in data set [2] (313.15 K), 967.49 ± 0.21 kg/m3; in data set [2] (318.15 K) it was 962.36 ± 0.21 kg/m3; in data set [2] (323.15 K), 957.2 ± 0.21 kg/m3; in data set [2] (328.15 K) it was 952.03 ± 0.21 kg/m3.
Turning to `C=C[Si]1(C)O[Si](C)(C=C)O[Si](C)(C=C)O[Si](C)(C=C)O1` (stereo not given) [2,4,6,8-tetramethyl-2,4,6,8-tetravinylcycloterasiloxane] + C[Si](C)(O[Si](C)(C)c1ccccc1)c1ccccc1, the refractive index in data set [3] (308.15 K) is 1.42751 ± 0.00035; in data set [3] (313.15 K), 1.42514 ± 0.00035; in data set [3] (318.15 K), 1.42275 ± 0.00035; in data set [3] (323.15 K) it was 1.4204 ± 0.0004; in data set [3] (328.15 K) it was 1.41802 ± 0.00035. Also, the mass density in data set [4] (308.15 K) came to 972.64 ± 0.21 kg/m3; in data set [4] (313.15 K), 967.49 ± 0.21 kg/m3; in data set [4] (318.15 K), 962.36 ± 0.21 kg/m3; in data set [4] (323.15 K), 957.2 ± 0.21 kg/m3; in data set [4] (328.15 K), 952.03 ± 0.21 kg/m3.
On to `C[Si]1(C)O[Si](C)(C)O[Si](C)(C)O[Si](C)(C)O1` [octamethylcyclotetrasiloxane], for which the refractive index in data set [1] (308.15 K) came out at 1.38924 ± 0.00036; in data set [1] (313.15 K), 1.38671 ± 0.00036; in data set [1] (318.15 K), 1.38419 ± 0.00036; in data set [1] (323.15 K) it was 1.38168 ± 0.00036; in data set [1] (328.15 K), 1.37916 ± 0.00036. In addition, the mass density amounted to 938.88 ± 0.22 kg/m3 in data set [2] (308.15 K); 933.06 ± 0.22 kg/m3 in data set [2] (313.15 K); 927.34 ± 0.22 kg/m3 in data set [2] (318.15 K); 921.59 ± 0.22 kg/m3 in data set [2] (323.15 K); 915.8 ± 0.22 kg/m3 in data set [2] (328.15 K).
Regarding `C[Si]1(C)O[Si](C)(C)O[Si](C)(C)O[Si](C)(C)O1` [octamethylcyclotetrasiloxane] + C[Si](C)(O[Si](C)(C)c1ccccc1)c1ccccc1, the refractive index in data set [3] (308.15 K) was determined as 1.38924 ± 0.00036; in data set [3] (313.15 K) it was 1.38671 ± 0.00036; in data set [3] (318.15 K), 1.38419 ± 0.00036; in data set [3] (323.15 K), 1.38168 ± 0.00036; in data set [3] (328.15 K) it was 1.37916 ± 0.00036. Also, the mass density in data set [4] (308.15 K) came to 938.88 ± 0.22 kg/m3; in data set [4] (313.15 K) it was 933.06 ± 0.22 kg/m3; in data set [4] (318.15 K), 927.34 ± 0.22 kg/m3; in data set [4] (323.15 K), 921.59 ± 0.22 kg/m3; in data set [4] (328.15 K), 915.8 ± 0.22 kg/m3.

(Values after the NIST ThermoML archive (doi:10.1021/acs.jced.5b00820).)
